Source: ChEMBL document CHEMBL3045195, “Comparison of the activity of non-steroidal ecdysone agonists between dipteran and lepidopteran insects, using cell-based EcR reporter assays” (Pest Manag Sci, 2010)
The source made the active and inactive calls. The calls are words filed in the database; no cut-off is given here.

Columns and labels:
[1] = molecular target: T1, Ecdysone receptor (Drosophila melanogaster) (UniProt P34021+P20153); test: Agonist activity at ecdysone receptor in Drosophila melanogaster S2 cells at 10 uM after 24 hr by luciferase reporter gene assay relative to 20-hydroxyecdysone; type: cell-based
Ecdysone receptor [2] = molecular target: T2, Ecdysone receptor (Drosophila melanogaster, UniProt P20153+P34021); test: Agonist activity at ecdysone receptor in Drosophila melanogaster S2 cells after 24 hr by luciferase reporter gene assay; type: cell-based
T2 sequence (P34021 whole entry): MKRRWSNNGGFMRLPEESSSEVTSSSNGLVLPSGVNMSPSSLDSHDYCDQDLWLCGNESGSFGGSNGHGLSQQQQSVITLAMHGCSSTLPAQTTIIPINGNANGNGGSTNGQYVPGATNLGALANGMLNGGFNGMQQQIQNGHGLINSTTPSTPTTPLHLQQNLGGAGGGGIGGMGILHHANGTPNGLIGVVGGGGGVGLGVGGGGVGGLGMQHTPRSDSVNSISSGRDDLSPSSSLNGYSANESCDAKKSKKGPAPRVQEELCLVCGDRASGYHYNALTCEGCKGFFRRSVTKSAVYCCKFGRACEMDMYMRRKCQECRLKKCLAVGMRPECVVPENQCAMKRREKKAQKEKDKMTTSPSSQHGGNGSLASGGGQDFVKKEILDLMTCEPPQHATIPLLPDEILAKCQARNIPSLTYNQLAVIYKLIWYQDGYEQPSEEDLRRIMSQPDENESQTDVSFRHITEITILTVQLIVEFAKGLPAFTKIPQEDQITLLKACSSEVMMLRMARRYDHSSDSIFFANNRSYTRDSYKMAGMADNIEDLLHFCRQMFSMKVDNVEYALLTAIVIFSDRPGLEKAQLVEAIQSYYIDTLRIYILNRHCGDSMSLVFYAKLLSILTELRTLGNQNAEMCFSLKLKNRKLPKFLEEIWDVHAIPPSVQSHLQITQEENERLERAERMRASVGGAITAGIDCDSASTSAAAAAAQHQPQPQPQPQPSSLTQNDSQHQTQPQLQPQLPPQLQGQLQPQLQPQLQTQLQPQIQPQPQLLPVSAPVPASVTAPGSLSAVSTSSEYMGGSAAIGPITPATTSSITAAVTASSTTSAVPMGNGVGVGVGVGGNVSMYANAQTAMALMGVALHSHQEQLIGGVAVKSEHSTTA
T2 sequence (P20153 whole entry): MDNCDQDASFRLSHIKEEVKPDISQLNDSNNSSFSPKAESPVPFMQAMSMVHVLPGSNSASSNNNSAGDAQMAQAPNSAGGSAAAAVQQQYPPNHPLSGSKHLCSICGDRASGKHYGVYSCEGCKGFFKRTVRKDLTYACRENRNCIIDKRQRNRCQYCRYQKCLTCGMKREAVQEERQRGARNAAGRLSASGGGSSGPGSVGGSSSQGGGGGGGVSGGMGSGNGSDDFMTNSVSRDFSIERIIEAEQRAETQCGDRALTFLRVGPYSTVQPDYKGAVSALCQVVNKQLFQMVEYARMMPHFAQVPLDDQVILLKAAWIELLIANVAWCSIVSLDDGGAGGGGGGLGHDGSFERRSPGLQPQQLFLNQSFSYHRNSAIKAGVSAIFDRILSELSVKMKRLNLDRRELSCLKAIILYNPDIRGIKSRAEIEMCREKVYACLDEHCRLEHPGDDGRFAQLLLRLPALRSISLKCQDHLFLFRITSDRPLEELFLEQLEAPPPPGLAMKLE

[3] = molecular target: Ecdysone receptor (Aedes aegypti) (UniProt P49880+Q9GSG8); test: Agonist activity at Aedes aegypti ecdysone receptor expressed in mammalian cells by reporter gene assay relative to control; type: cell-based
Ecdysone receptor [4] = molecular target: T3, Ecdysone receptor (Aedes aegypti, UniProt P49880+Q9GSG8); test: Agonist activity at Aedes aegypti ecdysone receptor expressed in mammalian cells by reporter gene assay; type: cell-based
T3 sequence (P49880 whole entry): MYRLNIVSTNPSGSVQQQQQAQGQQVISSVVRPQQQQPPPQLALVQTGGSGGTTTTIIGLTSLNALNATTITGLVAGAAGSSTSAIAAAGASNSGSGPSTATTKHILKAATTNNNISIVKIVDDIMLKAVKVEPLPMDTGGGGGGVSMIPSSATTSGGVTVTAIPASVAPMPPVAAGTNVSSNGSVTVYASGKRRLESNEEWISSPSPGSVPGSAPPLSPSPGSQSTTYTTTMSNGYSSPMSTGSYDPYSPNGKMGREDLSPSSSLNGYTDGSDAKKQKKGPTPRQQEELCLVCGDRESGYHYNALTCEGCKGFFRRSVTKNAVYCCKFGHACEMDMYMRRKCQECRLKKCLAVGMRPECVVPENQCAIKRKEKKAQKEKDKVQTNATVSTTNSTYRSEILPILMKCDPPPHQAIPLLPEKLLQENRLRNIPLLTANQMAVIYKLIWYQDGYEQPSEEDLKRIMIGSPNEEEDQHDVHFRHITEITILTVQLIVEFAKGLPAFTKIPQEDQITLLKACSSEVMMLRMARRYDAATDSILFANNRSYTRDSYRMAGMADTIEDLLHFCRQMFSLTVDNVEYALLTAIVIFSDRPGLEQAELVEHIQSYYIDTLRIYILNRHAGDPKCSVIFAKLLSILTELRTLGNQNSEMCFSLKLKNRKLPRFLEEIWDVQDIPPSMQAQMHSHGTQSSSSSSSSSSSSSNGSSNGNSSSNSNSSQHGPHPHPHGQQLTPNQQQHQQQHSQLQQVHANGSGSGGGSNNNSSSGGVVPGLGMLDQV
T3 sequence (Q9GSG8 whole entry): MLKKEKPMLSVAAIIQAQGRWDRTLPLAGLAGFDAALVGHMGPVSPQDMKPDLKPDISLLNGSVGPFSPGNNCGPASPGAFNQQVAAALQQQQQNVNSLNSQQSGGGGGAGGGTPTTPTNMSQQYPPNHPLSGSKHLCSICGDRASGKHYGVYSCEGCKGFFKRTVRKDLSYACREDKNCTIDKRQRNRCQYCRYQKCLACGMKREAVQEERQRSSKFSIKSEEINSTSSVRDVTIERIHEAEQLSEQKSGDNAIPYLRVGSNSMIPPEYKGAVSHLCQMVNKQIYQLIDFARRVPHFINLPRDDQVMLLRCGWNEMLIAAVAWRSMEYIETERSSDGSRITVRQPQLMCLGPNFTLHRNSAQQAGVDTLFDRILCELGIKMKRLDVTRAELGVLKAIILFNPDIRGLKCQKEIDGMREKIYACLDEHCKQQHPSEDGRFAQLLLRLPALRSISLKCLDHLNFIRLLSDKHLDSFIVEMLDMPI

[5] = molecular target: T4, Ecdysone receptor (Bombyx mori) (UniProt P49881); test: (§1) Agonist activity at ecdysone receptor in Bombyx mori Bm5 cells after 24 hr by luciferase reporter gene assay; type: cell-based
T4 sequence (whole entry): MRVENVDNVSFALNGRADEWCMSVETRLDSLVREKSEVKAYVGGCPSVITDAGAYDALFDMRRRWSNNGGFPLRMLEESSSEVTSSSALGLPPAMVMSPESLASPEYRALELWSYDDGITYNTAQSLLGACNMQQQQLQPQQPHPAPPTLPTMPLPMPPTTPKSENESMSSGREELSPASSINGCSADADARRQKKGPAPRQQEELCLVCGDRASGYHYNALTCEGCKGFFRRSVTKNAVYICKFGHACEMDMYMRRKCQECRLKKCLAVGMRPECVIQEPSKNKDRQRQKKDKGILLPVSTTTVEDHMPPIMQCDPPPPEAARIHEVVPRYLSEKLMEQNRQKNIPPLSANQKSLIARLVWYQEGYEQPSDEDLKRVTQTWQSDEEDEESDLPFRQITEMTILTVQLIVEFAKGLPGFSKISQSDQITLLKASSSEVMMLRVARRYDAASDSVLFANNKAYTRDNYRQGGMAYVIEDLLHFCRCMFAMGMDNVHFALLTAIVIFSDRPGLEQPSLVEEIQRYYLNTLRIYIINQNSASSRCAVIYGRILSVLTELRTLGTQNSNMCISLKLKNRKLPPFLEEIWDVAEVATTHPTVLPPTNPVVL

[6] = molecular target: T1, Ecdysone receptor (Drosophila melanogaster); test: Agonist activity at ecdysone receptor in Drosophila melanogaster S2 cells at 50 uM after 24 hr by luciferase reporter gene assay relative to 20-hydroxyecdysone; type: cell-based
[7] = molecular target: T1, Ecdysone receptor (Drosophila melanogaster); test: Agonist activity at ecdysone receptor in Drosophila melanogaster S2 cells at 1.33 uM after 24 hr by luciferase reporter gene assay relative to 20-hydroxyecdysone; type: cell-based
[8] = molecular target: T1, Ecdysone receptor (Drosophila melanogaster); test: Agonist activity at ecdysone receptor in Drosophila melanogaster S2 cells at 100 uM after 24 hr by luciferase reporter gene assay relative to 20-hydroxyecdysone; type: cell-based
[9] = molecular target: T1, Ecdysone receptor (Drosophila melanogaster); test: Agonist activity at ecdysone receptor in Drosophila melanogaster Kc cells at 100 uM after 24 hr by luciferase reporter gene assay relative to 20-hydroxyecdysone
[10] = molecular target: T1, Ecdysone receptor (Drosophila melanogaster); test: (§2) Agonist activity at ecdysone receptor in Drosophila melanogaster Kc cells after 24 hr by luciferase reporter gene assay
Ecdysone receptor [11] = molecular target: T5, Ecdysone receptor (Bombyx mori, UniProt P49881); test: as §1; type: cell-based
T5 sequence (P49881 whole entry): T4 sequence (whole entry)

[12] = molecular target: T1, Ecdysone receptor (Drosophila melanogaster); test: Agonist activity at ecdysone receptor in Drosophila melanogaster S2 cells at 5 uM after 24 hr by luciferase reporter gene assay relative to 20-hydroxyecdysone; type: cell-based
[13] = molecular target: T1, Ecdysone receptor (Drosophila melanogaster); test: Agonist activity at ecdysone receptor in Drosophila melanogaster S2 cells treated with ouabain for 24 hr prior to compound addition measured after 24 hr by luciferase reporter gene assay; type: cell-based
[14] = Cytotoxicity against Drosophila melanogaster S2 cells at 10 to 100 uM after 24 hr by CellTiter assay; type: cell-based; settings: s2, 24 h
[15] = molecular target: T1, Ecdysone receptor (Drosophila melanogaster); test: Agonist activity at ecdysone receptor in Drosophila melanogaster S2 cells after 24 hr by luciferase reporter gene assay in presence of ouabain; type: cell-based
[16] = molecular target: T1, Ecdysone receptor (Drosophila melanogaster); test: Agonist activity at ecdysone receptor in Drosophila melanogaster Kc cells at 10 uM after 24 hr by luciferase reporter gene assay relative to 20-hydroxyecdysone
Ecdysone receptor [17] = molecular target: T2, Ecdysone receptor; test: as §2

Compound: Cc1ccc(NC2CC(C)N(C(=O)c3ccc(C)cc3)c3ccc(C)cc32)cc1 (centres undefined)
- Efficacy [1]: 11%
- EC50 (Ecdysone receptor [2]): > 10 µM
- Efficacy [3]: 26%
- EC50 (Ecdysone receptor [4]): 5.01 µM
- pEC50 [5]: inactive

Compound: CCOc1ccccc1C(=O)N(NC(=O)c1ccc(CC)cc1)C(C)(C)C
- Efficacy [6]: 2%
- EC50 (Ecdysone receptor [2]): > 50.1 µM

Compound: Cc1cc(C)cc(C(=O)C2(NC(=O)c3ccc4c(c3C)CCCO4)CCCCC2)c1
- EC50 (Ecdysone receptor [2]): > 1.32 µM
- Efficacy [7]: 37%

Compound: Cc1ccc(C(=O)NN(C(=O)c2ccccc2Cl)C(C)(C)C)c(C)c1
- Efficacy [8]: 43%
- EC50 (Ecdysone receptor [2]): 129 µM
- Efficacy [9]: 29%
- pEC50 [10]: inactive
- EC50 (Ecdysone receptor [11]): 0.162 µM

Compound: CC(C)(C)N(NC(=O)c1ccc(I)cc1)C(=O)c1ccccc1Cl
- Efficacy [12]: 53%
- EC50 (Ecdysone receptor [2]): 7.08 µM
- EC50 (Ecdysone receptor [11]): 0.00759 µM

Compound: COc1cccc(C(=O)NN(C(=O)c2cc(C)cc(C)c2)C(C)(C)C)c1C [METHOXYFENOZIDE]
- Efficacy [8]: 66%
- EC50 (Ecdysone receptor [2]): 16.6 µM
- Activity [13]: Active
- Activity [14]: Non-toxic
- EC50 (Ecdysone receptor [11]): 0.00603 µM
- Activity [15]: Active

Compound: Cc1ccc(NC2CC(C)N(C(=O)c3ccc(Cl)cc3)c3ccc(C)cc32)cc1 (centres undefined)
- Efficacy [1]: 9%
- EC50 (Ecdysone receptor [2]): > 10 µM
- Efficacy [3]: 39%
- EC50 (Ecdysone receptor [4]): 2.14 µM
- pEC50 [5]: inactive

Compound: CC(C)(C)N(NC(=O)c1ccc(Br)cc1)C(=O)c1ccccc1Cl
- Efficacy [12]: 68%
- EC50 (Ecdysone receptor [2]): 2.82 µM
- Efficacy [16]: 56%
- EC50 (Ecdysone receptor [17]): 6.92 µM
- EC50 (Ecdysone receptor [11]): 0.0339 µM

Compound: CC(C)(C)N(NC(=O)c1c(F)cccc1F)C(=O)c1ccccc1Cl
- Efficacy [8]: 23%
- Efficacy [9]: 35%
- EC50 (Ecdysone receptor [17]): > 100 µM

Compound: CC(=O)c1ccc(C(=O)NN(C(=O)c2ccccc2Cl)C(C)(C)C)cc1
- Efficacy [8]: 7%
- Efficacy [16]: 3%
- EC50 (Ecdysone receptor [17]): > 100 µM
